In PubChem BioAssay (NCI):
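Values below derive from 48-hour exposures of cells grown in 96-well plates, with endpoints linearly interpolated between the two concentrations bracketing the appropriate inhibition level. GI50 = concentration required for 50% inhibition of growth. TGI: concentration producing complete growth inhibition.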

Tests used:
Test in all cases: NCI tumour cell line growth inhibition, 48 h
HCC-2998 colon = system: HCC-2998 colon
SN12C renal = system: SN12C renal
NCI-H460 lung = system: NCI-H460 lung
SF-295 CNS = system: SF-295 CNS
UO-31 renal = system: UO-31 renal
COLO 205 colon = system: COLO 205 colon
NCI-H23 lung = system: NCI-H23 lung
HS 578T breast = system: HS 578T breast
K-562 leukemia = system: K-562 leukemia
RPMI-8226 leukemia = system: RPMI-8226 leukemia

| SMILES | GI50 (HCC-2998 colon) [µM] | TGI (HCC-2998 colon) [µM] | GI50 (SN12C renal) [µM] | TGI (SN12C renal) [µM] | GI50 (NCI-H460 lung) [µM] | TGI (NCI-H460 lung) [µM] | GI50 (SF-295 CNS) [µM] | TGI (SF-295 CNS) [µM] | GI50 (UO-31 renal) [µM] | TGI (UO-31 renal) [µM] | GI50 (COLO 205 colon) [µM] | TGI (COLO 205 colon) [µM] | GI50 (NCI-H23 lung) [µM] | TGI (NCI-H23 lung) [µM] | GI50 (HS 578T breast) [µM] | TGI (HS 578T breast) [µM] | GI50 (K-562 leukemia) [µM] | TGI (K-562 leukemia) [µM] | GI50 (RPMI-8226 leukemia) [µM] | TGI (RPMI-8226 leukemia) [µM] |
| --- | --- | --- | --- | --- | --- | --- | --- | --- | --- | --- | --- | --- | --- | --- | --- | --- | --- | --- | --- | --- |
| COC(=O)c1cc2c([nH]c3ccccc32)c(-c2nc3cc(N(S(=O)(=O)c4ccc(C)cc4)S(=O)(=O)c4ccc(C)cc4)c(OC)cc3cc2CO)n1 | > 100 | > 100 | > 100 | > 100 | > 100 | > 100 | > 100 | > 100 | > 100 | > 100 | > 100 | > 100 | > 100 | > 100 | 30.6 | > 100 | > 100 | > 100 | – | – |
| CNCc1ccc(C)c(NC(=O)c2ccc(Nc3nc(-c4ccccc4)c4ccccc4n3)cc2)c1 | 1.96 | 3.58 | – | – | 1.8 | 3.38 | 1.84 | 3.56 | 1.67 | 3.75 | 1.84 | 3.57 | 1.87 | 3.71 | 1.76 | 4.17 | 1.91 | 4.54 | – | – |
| CC(=O)NC1C(=O)CC(c2ccccc2)N(C)C1c1ccccc1 (stereo not given) | – | > 100 | – | > 100 | – | > 100 | – | > 100 | – | > 100 | – | > 100 | – | > 100 | – | – | – | > 100 | – | – |
| NCCN.O=N[O-].O=N[O-].O=N[O-].O=N[O-].[Co+3].[K+] | – | – | > 100 | > 100 | > 100 | > 100 | > 100 | > 100 | > 100 | > 100 | > 100 | > 100 | > 100 | > 100 | – | – | > 100 | > 100 | > 100 | > 100 |
| CC(=O)OC12CCCCC1C1(CCCC1)NC2=O (stereo not given) | – | > 100 | – | > 100 | – | > 100 | – | > 100 | – | > 100 | – | – | – | > 100 | – | – | – | > 100 | – | > 100 |
| Cc1nc2c(=O)n(C)c(=O)nc-2n(-c2ccc(Cl)cc2)c1C | – | > 100 | – | > 100 | – | > 100 | – | > 100 | – | > 100 | – | > 100 | – | > 100 | – | – | – | > 100 | – | – |
| COC(=O)c1c(OC(=O)c2ccccc2)noc1CC(=O)OC1C=CCCC1 (stereo not given) | – | > 100 | – | > 100 | – | > 100 | – | – | – | > 100 | – | > 100 | – | – | – | – | – | > 100 | – | > 100 |
| CC/C(=C(\c1ccccc1)c1ccc(OCC[N+](C)(C)C)cc1)c1ccccc1 | – | 34.2 | – | 25.7 | – | 37.4 | – | 33.8 | – | 38.7 | – | 20.4 | – | – | – | – | – | 19.9 | – | 28.8 |
| O=C(Cc1nc2ccccc2s1)C(=O)Nc1ccccc1C(F)(F)F | – | > 100 | – | > 100 | – | > 100 | – | > 100 | – | > 100 | – | > 100 | – | > 100 | – | – | – | > 100 | – | – |
| Cc1nn(C(=O)CC(=O)Nc2ccccc2Cl)c(C)c1N=Nc1ccccc1Cl | – | > 100 | – | > 100 | – | > 100 | – | > 100 | – | > 100 | – | > 100 | – | > 100 | – | – | – | > 100 | – | – |
| CC1SC(c2cccc(Oc3ccccc3)c2)N(CCc2cccs2)C1=O (stereo not given) | 1.88 | 5.75 | 1.25 | 2.7 | 1.09 | 2.49 | 0.725 | 2.23 | 0.469 | 1.9 | 1.5 | 3.05 | 0.718 | 3.55 | – | – | 0.573 | 7.79 | 0.542 | 2.94 |
| Cc1nc2cc(NC(=O)CN3CCN(CCN4C(=O)c5cccc6cccc(c56)C4=O)CC3)ccc2s1 | 6.66 | > 100 | 5.22 | > 100 | 3.44 | 13.1 | 3.48 | > 100 | 3.07 | > 100 | 4.46 | 89.6 | 6.6 | 38.2 | 6.53 | 52.5 | – | – | 2.91 | 15.2 |
| Nc1n[nH]c(=O)c2c1c(Br)cn2C1OC(CO)C(O)C1O (stereo not given) | – | 24.7 | – | 43.5 | – | > 100 | – | > 90.2 | – | 26.8 | – | 28.1 | – | 25 | – | – | – | > 100 | – | 22.5 |
| COc1cc(C2C(C(=O)Nc3ccc(Cl)c(Cl)c3)=C(C)NC(C)=C2C(=O)Nc2ccc(Cl)c(Cl)c2)ccc1O | – | 23.5 | – | 30.9 | – | 35.5 | – | 34.5 | – | 25.6 | – | 30.2 | – | 27.5 | – | – | – | 26.2 | – | 30.1 |
| O=C1c2ccccc2CC1C1(O)C(=O)Nc2c(Cl)cc(Cl)cc21 (stereo not given) | – | > 100 | – | > 100 | – | > 100 | – | > 100 | – | > 100 | – | > 100 | – | > 100 | – | – | – | > 100 | – | > 100 |
| CCc1cccc(C(C)C)c1C1C(=O)C(=O)N(c2nc3ccccc3s2)C(=O)C1=O | – | > 100 | – | > 100 | – | > 100 | – | > 100 | – | > 100 | – | > 100 | – | > 100 | – | – | – | > 100 | – | > 100 |
| O=C1OC2C(O)COC2(OCc2c[nH]c3ccccc23)C1O (stereo not given) (tested in a mixture with another compound) | – | – | – | > 100 | – | > 100 | – | > 100 | – | > 100 | – | > 100 | – | > 100 | – | – | – | > 100 | – | > 100 |
| O=C1[C@@H]2C3C=CC([C@H]4C(=O)N(CO)C(=O)[C@@H]34)[C@@H]2C(=O)N1CO | – | > 100 | – | > 100 | – | > 55.1 | – | > 100 | – | > 100 | – | > 77.8 | – | > 100 | – | – | – | > 100 | – | 49.5 |
| O=S(O)CCCSSCCCCSSCCCS(=O)O | – | > 100 | – | > 100 | – | > 100 | – | > 100 | – | > 100 | – | > 100 | – | > 100 | – | – | – | > 100 | – | – |
| COc1ccc(/C=C(\NC(=O)c2ccccc2)c2nc3ccccc3[nH]2)cc1 | – | > 100 | – | > 100 | – | > 100 | – | – | – | 74.5 | – | 75.8 | – | 56.1 | – | – | – | > 100 | – | 69.9 |
